Usually EC50 stands for the concentration that produces a half-maximal response. As usually defined, the IC50 is the concentration that gives 50% inhibition.

SMILES strings stand for the structures. Where only a bound is given, the exact number is not on record here.

In patent US10316017B2, “COT modulators and methods of use thereof” (Gilead Sciences, Inc., priority 2015, dated 2019) one finds EC50 and IC50 data, which are given here for 22 compounds.

The subject of assay [1] is TNFα production in LPS-stimulated human monocytes. Description: Cot Monocyte TNFα Cell Based Assay. The conditions noted are these: Homo sapiens, Monocyte, TNFα in LPS-stimulated human monocytes; read-out: EC50 TNF. Summed up: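 5,000 cells/well; cmpd 1 h, 37 °C, 0.5% DMSO final; LPS 50 pg/ml, 4 h, 37 °C; media TNFα by HTRF sandwich (cryptate/XL665), RT overnight; % control vs unstimulated/stimulated wells.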

The target in assay [2] is T1, human Cot catalytic domain (30-397 amino acids) (Homo sapiens, UniProt P41279).
T1 construct: Purified recombinant human Cot catalytic domain (30-397 amino acids) was purchased from Cama Biosciences; purchased Cama Biosciences (so in the source)
T1 sequence (P41279 30-397): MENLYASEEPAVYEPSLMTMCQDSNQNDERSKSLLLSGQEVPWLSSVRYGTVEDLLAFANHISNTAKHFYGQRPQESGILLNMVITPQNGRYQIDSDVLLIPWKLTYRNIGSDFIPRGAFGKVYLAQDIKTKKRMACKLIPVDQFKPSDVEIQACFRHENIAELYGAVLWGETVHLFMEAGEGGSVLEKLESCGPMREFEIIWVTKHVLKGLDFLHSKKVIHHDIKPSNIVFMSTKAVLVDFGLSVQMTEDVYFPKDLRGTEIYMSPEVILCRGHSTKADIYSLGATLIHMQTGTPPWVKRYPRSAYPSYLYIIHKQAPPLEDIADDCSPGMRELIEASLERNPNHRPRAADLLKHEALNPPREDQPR
Description: High Throughput Cot Biochemical Assay (KinEASE TR-FRET). The conditions noted are these: Cot biochemical HTRF (KinEASE TR-FRET) assay; read-out: IC50 HTRF. The method, boiled down:
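First, purified human Cot (aa 30-397) at 5 nM phosphorylates an XL665-labeled STK3 peptide (1 μM) at 400 μM ATP, pH 7.0, 0.1% DMSO. Then a europium-conjugated phospho-specific antibody binds the product, giving the TR-FRET signal.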
Background: TR-FRET usually uses a lanthanide donor and a delayed reading to cut background.

In the case of `CCN1CC2(CC(n3cc([C@@H](Nc4cc(Cl)c5ncc(C#N)c(Nc6ccc(F)c(Cl)c6)c5c4)c4ccccc4)nn3)C2)C1` [Example 774], the EC50 in assay [1] is 0.127 µM. The IC50 in assay [2] amounted to 0.003 µM.
For `CC(C)(C)N1CCC(n2cc([C@@H](Nc3cc(Cl)c4ncc(C#N)c(Nc5ccccc5)c4c3)c3ccc(Cl)cc3)nn2)CC1` [Example 777, (S)-6-(((1-(1-(tert-butyl)piperidin-4-yl)-1H-1,2,3-triazol-4-yl)(4-chlorophenyl)methyl)amino)-8-chloro-4-(phenylamino)quinoline-3-carbonitrile], in that order: 6.97 µM and 0.072 µM.
Consider `N#Cc1cnc2c(Cl)cc(N[C@@H](c3ccccc3)c3cn(C4CCNCC4)nn3)cc2c1Nc1ccc(F)c(Cl)c1` [Example 778, (S)-8-chloro-4-((3-chloro-4-fluorophenyl)amino)-6-((phenyl (1-(piperidin-4-yl)-1H-1,2,3-triazol-4-yl)methyl)amino) quinoline-3-carbonitrile], for which, in assay [1], the 50% effective concentration (EC50) is 0.305 µM. For the same compound, the half-maximal inhibitory concentration (IC50) in assay [2] stood at 0.002 µM.
The matching figures for `CCN1CCC(n2cc([C@@H](Nc3ccc4ncc(C#N)c(Nc5ccc(F)c(Cl)c5)c4c3)c3ccccc3)nn2)CC1` [Example 779, (S)-4-((3-chloro-4-fluorophenyl)amino)-6-(((1-(1 ethylpiperidin-4-yl)-1H-1,2,3-triazol-4-yl)(phenyl)methyl)amino)quinoline-3-carbonitrile]: 0.196 µM and 0.004 µM.
Regarding `CC(C)(C)N1CCC(n2cc([C@@H](Nc3cc(Cl)c4ncc(C#N)c(Nc5cncc(Cl)c5)c4c3)c3ccccc3)nn2)CC1` [Example 780, (S)-6-(((1-(1-(tert-butyl)piperidin-4-yl)-1H-1,2,3-triazol-4-yl)(phenyl)methyl)amino)-8-chloro-4-((5-chloropyridin-3-yl)amino)quinoline-3-carbonitrile], the EC50 in assay [1] turned out to be 0.865 µM. Further, in assay [2], the IC50 is 0.02 µM.
For `CC(C)(C)N1CCC(n2cc([C@@H](Nc3cc(Cl)c4ncc(C#N)c(Nc5ccc(Cl)c(Cl)c5F)c4c3)c3ccccc3)nn2)CC1` [Example 781, (S)-6-(((1-(1-(tert-butyl)piperidin-4-yl)-1H-1,2,3-triazol-4-yl)(phenyl)methyl)amino)-8-chloro-4-((3,4-dichloro-2-fluorophenyl)amino)quinoline-3-carbonitrile], in that order: 0.597 µM and 0.011 µM.
The matching figures for `N#Cc1cnc2c(Cl)cc(NC(c3ccc(F)cc3)c3csnn3)cc2c1Nc1ccc(F)c(Cl)c1` (centres unmarked) [Example 784, 8-chloro-4-((3-chloro-4-fluorophenyl)amino)-6-(((4-fluorophenyl)(1,2,3-thiadiazol-4-yl)methyl)amino)quinoline-3-carbonitrile]: 1.99 µM and 0.249 µM.
As to `CC(C)(C)N1CCC(n2cc([C@@H](Nc3cc(Cl)c4ncc(C#N)c(Nc5ccc(OCc6ccccn6)c(Cl)c5)c4c3)c3ccccc3)nn2)CC1` [Example 786, (S)-6-(((1-(1-(tert-butyl)piperidin-4-yl)-1H-1,2,3-triazol-4-yl)(phenyl)methyl)amino)-8-chloro-4-((3-chloro-4-(pyridin-2-ylmethoxy)phenyl)amino)quinoline-3-carbonitrile], the EC50 in assay [1] came to 6.63 µM. Besides, in assay [2], the IC50 turned out to be 0.173 µM.
The matching figures for `CC(C)(C)N1CCC(n2cc([C@@H](Nc3cc(Cl)c4ncc(C#N)c(Nc5ccc(F)c(F)c5)c4c3)c3ccccc3)nn2)CC1` [Example 787, (S)-6-(((1-(1-(tert-butyl)piperidin-4-yl)-1H-1,2,3-triazol-4-yl)(phenyl)methyl)amino)-8-chloro-4-((3,4-difluorophenyl)amino)quinoline-3-carbonitrile]: 0.362 µM and 0.011 µM.
The matching figures for `CC1(C)CC(n2cc([C@@H](Nc3cc(Cl)c4ncc(C#N)c(Nc5ccc(F)c(Cl)c5)c4c3)c3ccccc3)nn2)CCN1` (stereo partly drawn) [Example 790, 8-chloro-4-((3-chloro-4-fluorophenyl)amino)-6-(((1S)-(1-(2,2-dimethylpiperidin-4-yl)-1H-1,2,3-triazo1-4-yl)(phenyl)methyl)amino) quinoline-3-carbonitrile]: 0.305 µM and 0.004 µM.
Turning to `CCN1CCC(n2cc([C@@H](Nc3cc(F)c4ncc(C#N)c(Nc5ccc(F)c(Cl)c5)c4c3)c3ccccc3)nn2)CC1` [Example 791, (S)-4-((3-chloro-4-fluorophenyl)amino)-6-(((1-(1-ethylpiperidin-4-yl)-1H-1,2,3-triazol-4-yl)(phenyl)methyl)amino)-8-fluoroquinoline-3-carbonitrile], the EC50 in assay [1] amounted to 0.05 µM. Moreover, in assay [2], the IC50 worked out at 0.003 µM.
For `CCN1CCC(n2cc([C@H](c3ccccc3)N(CC)c3cc(Cl)c4ncc(C#N)c(Nc5ccc(F)c(Cl)c5)c4c3)nn2)CC1` [Example 792, (S)-8-chloro-4-((3-chloro-4-fluorophenyl)amino)-6-(ethyl((1-(1-ethylpiperidin-4-yl)-1H-1,2,3-triazol-4-yl)(phenyl)methyl)amino) quinoline-3-carbonitrile], in that order: 0.091 µM and 0.005 µM.
Take `CN(C)CCn1cc([C@@H](Nc2cc(Cl)c3ncc(C#N)c(Nc4ccc(F)c(Cl)c4)c3c2)c2ccccc2)nn1` [Example 793, (S)-8-chloro-4-((3-chloro-4-fluorophenyl)amino)-6-(((1-(2-(dimethylamino)ethyl)-1H-1,2,3-triazol-4-yl)(phenyl)methyl)amino) quinoline-3-carbonitrile]: the EC50 in assay [1] is 0.209 µM. The IC50 in assay [2] is 0.007 µM.
The matching figures for `N#Cc1cnc2c(F)cc(N[C@@H](c3ccccc3)c3cn(C4CCNCC4)nn3)cc2c1Nc1ccc(F)c(Cl)c1` [Example 794, (S)-4-((3-chloro-4-fluorophenyl)amino)-8-fluoro-6-((phenyl(1-(piperidin-4-yl)-1H-1,2,3-triazol-4-yl)methyl)amino)quinoline-3-carbonitrile]: 0.441 µM and 0.004 µM.
The matching figures for `COCCn1cc([C@@H](Nc2cc(Cl)c3ncc(C#N)c(Nc4ccc(F)c(Cl)c4)c3c2)c2ccccc2)nn1` [Example 795, (S)-8-chloro-4-((3-chloro-4-fluorophenyl)amino)-6-(((1-(2-methoxyethyl)-1H-1,2,3-triazol-4-yl)(phenyl)methyl)amino)quinoline-3-carbonitrile]: 0.314 µM and 0.013 µM.
Take `N#Cc1cnc2c(Cl)cc(N[C@@H](c3ccccc3)c3cn(CCN)nn3)cc2c1Nc1ccc(F)c(Cl)c1` [Example 796, (S)-6-(((1-(2-aminoethyl)-1H-1,2,3-triazol-4-yl)(phenyl)methyl)amino)-8-chloro-4-((3-chloro-4-fluorophenyl)amino)quinoline-3-carbonitrile]: in assay [1], the EC50 stood at 0.2 µM. In addition, the IC50 in assay [2] was found to be 0.002 µM.
The matching figures for `CN(C)CCCn1cc([C@@H](Nc2cc(Cl)c3ncc(C#N)c(Nc4ccc(F)c(Cl)c4)c3c2)c2ccccc2)nn1` [Example 797, (S)-8-chloro-4-((3-chloro-4-fluorophenyl)amino)-6-(((1-(3-(dimethylamino)propyl)-1H-1,2,3-triazol-4-yl)(phenyl)methyl)amino) quinoline-3-carbonitrile]: 0.107 µM and 0.003 µM.
The matching figures for `N#Cc1cnc2c(Cl)cc(N[C@@H](c3ccc(Cl)cc3)c3cn(C4CCN(C5COC5)CC4)nn3)cc2c1Nc1ccc(F)c(Cl)c1` [Example 802, (S)-8-chloro-4-((3-chloro-4-fluorophenyl)amino)-6-(((4-chlorophenyl)(1-(1-(oxetan-3-yl)piperidin-4-yl)-1H-1,2,3-triazol-4-yl)methyl)amino)quinoline-3-carbonitrile]: 0.963 µM and 0.078 µM.
`CC(C)(C)N1CCC(n2cc([C@@H](Nc3cc(Cl)c4ncc(C#N)c(Nc5ccc(F)c(Cl)c5)c4c3)c3ccc(Cl)cc3)nn2)CC1` [Example 803, (S)-6-(((1-(1-(tert-butyl)piperidin-4-yl)-1H-1,2,3-triazol-4-yl)(4-chlorophenyl)methyl)amino)-8-chloro-4-((3-chloro-4-fluorophenyl)amino)quinoline-3-carbonitrile]: in assay [1], the EC50 was 0.206 µM. In assay [2], the IC50 was 0.007 µM.
For `Cc1nonc1C(Nc1cc(Cl)c2ncc(C#N)c(Nc3ccc(F)c(Cl)c3)c2c1)c1ccc(F)cc1` (centres unmarked) [Example 805, 8-chloro-4-((3-chloro-4-fluorophenyl)amino)-6-(((4-fluorophenyl)(4-methyl-1,2,5-oxadiazol-3-yl)methyl)amino)quinoline-3-carbonitrile], in that order: over 1 µM and 0.588 µM.
The matching figures for `N#Cc1cnc2c(Cl)cc(NC(c3ccc(F)cc3)c3cscn3)cc2c1Nc1ccc(F)c(Cl)c1` (centres unmarked) [Example 806, 8-chloro-4-((3-chloro-4-fluorophenyl)amino)-6-(((4-fluorophenyl)(thiazol-4-yl)methyl)amino)quinoline-3-carbonitrile]: over 50 µM and 0.85 µM.
The matching figures for `CC1(Cn2cc([C@@H](Nc3cc(Cl)c4ncc(C#N)c(Nc5ccc(F)c(Cl)c5)c4c3)c3ccc(F)cc3)nn2)COC1` [Example 808, (S)-8-chloro-4-((3-chloro-4-fluorophenyl)amino)-6-(((4-fluorophenyl)(1-((3-methyloxetan-3-yl)methyl)-1H-1,2,3-triazol-4-yl)methyl)amino)quinoline-3-carbonitrile]: 0.434 µM and 0.026 µM.
